Results published in patent US20240294488A1, “ISOTOPOLOGES, SALTS, CRYSTALLINE FORMS, STEREOISOMERS, OF METHYLONE AND ETHYLONE AND METHODS OF USE THEREOF” (Terran Biosciences Inc., priority 2021, published 2024).
Counter-ions that a name gives are not always drawn.

What was measured:
[1] = Metabolic stability in human liver microsomes; format: in vitro ADME; settings: pooled liver microsomes, pH 7.4; human liver microsomes 0.5 mg/mL, 1 μM compound, NADPH, 0-45 min
Description: Pooled liver microsomes are purchased from a reputable commercial supplier. Microsomes are stored at […] prior to use. Microsomes (final protein concentration 0.5 mg/mL), 0.1 M phosphate buffer pH 7.4 and test compound (final substrate concentration 1 μM; final DMSO concentration 0.25%) are preincubated at 37° C. prior to the addition of NADPH (final concentration 1 mM) to initiate the reaction. A minus cofactor control incubation is included for each compound tested where 0.1 M phosphate buffer pH 7.4 is added instead of NADPH (minus NADPH). Two control compounds are included with each species. All incubations are performed singularly for each test compound. Each compound is incubated for 0, 5, 15, 30 and 45 min. The control (minus NADPH) is incubated for 45 min only. The reactions are stopped by transferring incubate into acetonitrile at the appropriate time points, in a 1:3 ratio. The termination plates are centrifuged at 3,000 rpm for 20 min at 4° C. to precipitate the protein.
From a plot of ln peak area ratio (compound peak area/internal standard peak area) against time, the gradient of the line is determined. Subsequently, half-life and intrinsic clearance are calculated using the equations below:
where V=Incubation volume (μL)/Microsomal protein (mg)
Relevant control compounds were assessed, ensuring intrinsic clearance values fall within the specified limits (if available).

[2] = test system: participants diagnosed with at least moderate post-traumatic stress disorder (PTSD); assay: Double-blind, randomized, placebo-controlled clinical trial of methylone-assisted psychotherapy in PTSD; format: in vivo, human; settings: for CAPS-5 assessments: Intervening Session 1C, 2C, 3C and Study Conclusion; for daytime sleepiness as measured by ESS / change in CAPS-5 assessment / clinician-rated functional impairment score as measured by SDS / depression as measured by HAM-D: at Study Conclusion; for change in CAPS-5 assessment: vs placebo group, with psychotherapy
Description: A multicenter, randomized, double-blind, placebo-controlled trial is conducted to assess the efficacy and safety of methylone-assisted psychotherapy versus psychotherapy with placebo control in participants diagnosed with at least moderate post-traumatic stress disorder (PTSD).
This multicenter, randomized, double-blind, placebo-controlled trial is conducted at various sites in the United States with IRB approval from each study site. A flexible dose of methylone hydrochloride salt or placebo, followed by a supplemental half-dose unless contraindicated by patient's previous response or medical history, is also administered during the Treatment Period with psychotherapy in at least 3 blinded monthly Experimental Sessions. The Supplemental Dose extends the duration of drug effects on the participants during an Experimental Session. Methylone test groups are further subdivided into specific groups receiving only racemic methylone hydrochloride salt, S-methylone hydrochloride salt, or R-methylone hydrochloride salt. An optional Risk Evaluation and Mitigation Strategy (REMS) Protocol may be implemented for the racemic methylone, S-methylone, and placebo-groups. The Treatment Period lasts for approximately 12 weeks. During the Treatment Period, each Experimental Session is followed by three Intervening Sessions of non-drug psychotherapy. Each Experimental Session involves an overnight stay. The Primary Outcome measure, the change in Clinician Administered PTSD Scale for DSM-5 (CAPS-5), is determined by a blinded Independent Rater (IR) pool multiple times throughout the study. The study consists of separate periods for each participant. Initially, prospective participants undergo a Screening Period involving an initial eligibility assessment, a medical history intake, informed consent, and enrollment of eligible participants. Next, a Preparation Period is undertaken for enrolled participants involving medication tapering and clinical baseline assessments to confirm each participant meets enrollment criteria. As part of the Preparation Period, a detailed assessment of co-morbidities to PTSD is recorded. Participants may remain on prescribed courses of selective serotonin reuptake inhibitor (SSRI) or serotonin and norepinephrine reuptake inhibitor (SNRI) treatment. Dosages and/or frequency of administration of a prescribed SSRI or SNRI may be adjusted to fit within study parameters. Participants may be required to taper a prescribed course of medication in order to maintain eligibility within the study. The Treatment Period consists of three monthly Experimental Sessions and associated Intervening Sessions of integrative behavioral psychotherapy. The Treatment Period lasts approximately 12 weeks. Following the Treatment Period is a Follow-up Period and Study Conclusion. During the Follow-up Period and Study Conclusion, participants complete 4 weeks with no study visits, followed by a Study Conclusion visit.
This study compares the effects of three blinded Experimental Sessions of psychotherapy in combination with flexible doses of methylone or placebo administered as described below. Non-drug preparatory and intervening psychotherapy sessions are also included. Patient's weight is determined for dosage calculation. Initial dose is 100 mg unless this will result in a dosage of less than 1.5 mg/kg of patient weight. Initial dose thereby adjusted upward in 25 mg increments to deliver the lowest dose possible of at least 1.5 mg/kg of patient weight. Initial dose for Experimental Session 2 and 3 is cumulative dose calculated by adding the initial dose plus REMS protocol dose used the previous Experimental Session for each patient.
Randomization occurs prior to the initiation of Experimental Session 1. Each participant is provided the next randomized number in a sequence by a blinded study monitor. […]

Structure (SMILES) | half-life at 1 μM [1] [h] | microsomal CLint at 1 μM [1] [µL/min/mg] | CAPS-5 assessments ([2]; vs placebo-treated controls) | daytime sleepiness as measured by ESS [2] | change in CAPS-5 assessment [2] | clinician-rated functional impairment score as measured by SDS ([2]; vs placebo-treated controls) | depression as measured by HAM-D ([2]; vs placebo-treated controls) | adverse anxiogenic incidents ([2]; PTSD participants, vs placebo-treated controls) | total dosage of drug needed for significant mean reduction in CAPS-5, compared to racemic methylone-treated subgroup ([2]; PTSD participants)
CNC(C)C(=O)c1ccc2c(c1)OCO2 (racemic) [(rac)-Methylone Hydrochloride, 3,4-methylenedioxy-N-methylcathinone hydrochloride] | 2.62 | 8.84 | Significant improvements in CAPS-5 assessments | a significant improvement in lessening daytime sleepiness | a significant mean reduction in CAPS-5 assessment | a significant improvement in clinician-rated functional impairment score | a significant improvement depression | – | –
CN[C@H](C)C(=O)c1ccc2c(c1)OCO2 [(R)-Methylone Hydrochloride, (R)-1-(Benzo[d][1,3]dioxol-5-yl)-2-(methylamino)propan-1-one Hydrochloride] | 3.38 | 6.82 | Significant improvements in CAPS-5 assessments | a significant improvement in lessening daytime sleepiness | a significant mean reduction in CAPS-5 assessment | a significant improvement in clinician-rated functional impairment score | a significant improvement depression | without a significant increase in adverse anxiogenic incidents | –
CN[C@@H](C)C(=O)c1ccc2c(c1)OCO2 [(S)-Methylone Hydrochloride, (S)-1-(Benzo[d][1,3]dioxol-5-yl)-2-(methylamino)propan-1-one Hydrochloride] | 2.28 | 10.1 | Significant improvements in CAPS-5 assessments | a significant improvement in lessening daytime sleepiness | a significant mean reduction in CAPS-5 assessment | a significant improvement in clinician-rated functional impairment score | a significant improvement depression | – | lower total dosage of drug
